Measured values published in patent US20080200444A1, “SOLUBLE EPOXIDE HYDROLASE INHIBITORS” (Arete Therapeutics, Inc., priority 2006, published 2008).

What follows are compounds tested on soluble epoxide hydrolase (sEH) (assay: Fluorescent assay for mouse and human soluble epoxide hydrolase (CMNPC substrate)). Settings: inhibitor at 50 nM; recombinant sEH, CMNPC substrate 5 μM, 30° C., pH 7.0; mouse or human enzyme not given.
Assay type: biochemical
Description: Fluorescent Assay for Mouse and Human Soluble Epoxide Hydrolase
Recombinant mouse sEH (MsEH) and human sEH (HsEH) were produced in a baculovirus expression system as previously reported. Grant et al., J. Biol. Chem., 268:17628-17633 (1993); Beetham et al., Arch. Biochem. Biophys., 305:197-201 (1993). The expressed proteins were purified from cell lysate by affinity chromatography. Wixtrom et al., Anal. Biochem., 169:71-80 (1988). Protein concentration was quantified using the Pierce BCA assay using bovine serum albumin as the calibrating standard. The preparations were at least 97% pure as judged by SDS-PAGE and scanning densitometry. They contained no detectable esterase or glutathione transferase activity which can interfere with the assay. The assay was also evaluated with similar results in crude cell lysates or homogenate of tissues.
The IC50s for each inhibitor were according to the following procedure:
Cyano(2-methoxynaphthalen-6-yl)methyl(3-phenyloxiran-2-yl)methyl carbonate (CMNPC; Jones P. D. et. al.; Analytical Biochemistry 2005; 343: pp.66-75)
Bis/Tris HCl 25 mM pH 7.0 containing 0.1 mg/mL of BSA (buffer A)
CMNPC at 0.25 mM in DMSO.
Mother solution of enzyme in buffer A (Mouse sEH at 6 μg/mL and Human sEH at 5 μg/mL).
Inhibitor dissolved in DMSO at the appropriate concentration.
In a black 96 well plate, fill all the wells with 150 μL of buffer A.
Add 2 μL of DMSO in well A2 and A3, and then add 2 μL of inhibitor solution in A1 and A4 through A12.
Add 150 μL of buffer A in row A, then mix several time and transfer 150 μL to row B. Repeat this operation up to row H. The 150 μL removed from row H is discarded.
Add 20 μL of buffer A in column 1 and 2, then add 20 μL of enzyme solution to column 3 to 12.
Incubate the plate for 5 minutes in the plate reader at 30° C.
During incubation prepare the working solution of substrate by mixing 3.68 mL of buffer A (4×0.920 mL) with 266 μL (2×133 μL) of substrate solution).
At t=0, add 30 μL of working substrate solution with multi-channel pipette labeled “Briggs 303” and start the reading ([S]final: 5 μM).
Read with ex: 330 nm (20 nm) and em: 465 nm (20 nm) every 30 second for 10 minutes. The velocities are used to analyze and calculate the IC50s.

Row | % Inhibition at 50 nM [%] | SMILES
1 | 95 | O=C(NC1CCCN(S(=O)(=O)c2cccc(C(F)(F)F)c2)C1)NC12CC3CC(CC(C3)C1)C2 (stereo not shown) [Compound 4, 1-Adamantan-1-yl-3-[1-(3-trifluoromethyl-benzenesulfonyl)-piperidin-3-yl]-urea]
2 | 76 | CS(=O)(=O)N1CCCC(NC(=O)NC23CC4CC(CC(C4)C2)C3)C1 (stereo not shown) [Compound 2, 1-Adamantan-1-yl-3-(1-methanesulfonyl-piperidin-3-yl)-urea]
3 | 94 | O=C(NC1CCCN(S(=O)(=O)c2ccc(Cl)cc2)C1)NC12CC3CC(CC(C3)C1)C2 (stereo not shown) [Compound 3, 1-Adamantan-1-yl-3-[1-(4-chloro-benzenesulfonyl)-piperidin-3-yl]-urea]

Row | SMILES | % Inhibition at 50 nM [%]
4 | CC(=O)N1CCCC(NC(=O)NC23CC4CC(CC(C4)C2)C3)C1 (stereo not shown) [Compound 1, 1-(1-Acetyl-piperidin-3-yl)-3-adamantan-1-yl-urea] | 69
